Source: ChEMBL document CHEMBL1201862, “PubChem BioAssay data set” (2004)
Activity calls are given as the source filed them.

How the values were obtained:
cells [1] = type: functional
Galanin receptor type 3 = molecular target: T1, Galanin receptor type 3 (Homo sapiens, UniProt O60755); test: Fluorescence-based cell-based primary high throughput dose response assay to identify antagonists of the Galanin Receptor 3 (GalR3).; type: functional
T1 sequence (O60755 whole entry): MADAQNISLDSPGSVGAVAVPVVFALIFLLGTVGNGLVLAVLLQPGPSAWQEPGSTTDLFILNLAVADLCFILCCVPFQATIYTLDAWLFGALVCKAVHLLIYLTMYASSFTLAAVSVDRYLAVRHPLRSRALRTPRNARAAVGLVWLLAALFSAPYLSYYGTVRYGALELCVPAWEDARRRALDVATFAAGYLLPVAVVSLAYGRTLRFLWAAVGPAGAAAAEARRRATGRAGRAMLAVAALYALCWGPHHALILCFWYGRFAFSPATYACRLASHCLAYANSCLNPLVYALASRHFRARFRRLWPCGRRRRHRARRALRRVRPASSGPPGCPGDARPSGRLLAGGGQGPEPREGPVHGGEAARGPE

cells [2] = type: functional, cell-based; details: HEK-CNG
[3] = A549 cell cytotoxicity, dose response, cytotoxicity control, plate reader, cherry-pick, antagonist series (AID 743412); type: functional, cell-based
[4] = HepG2 cell cytotoxicity, dose response, cytotoxicity control, plate reader, cherry-pick, antagonist series (AID 743416); type: functional, cell-based
[5] = LGR2 antagonists, dose response, cell-based, HEK293, CRE-luciferase reporter, cherry pick, set 2 (AID 743343); type: functional;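 note: transfected cells were stimulated with diluted bursicon conditioned medium after compound addition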
[6] = MC4R antagonists, dose response, counter-screen for LGR2 antagonist project, cell-based, plate reader, cherry pick (AID 743444); type: functional;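 note: transfected HEK 293 cells stimulated with alpha-MSH peptide; potency of inhibitors of the alpha-MSH evoked signal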
[7] = HEK293 cell cytotoxicity, dose response, cytotoxicity control, plate reader, cherry-picked samples (AID 743446); type: functional, cell-based
[8] = Luminescence-based cell-based high throughput dose response assay to identify activators of the DAF-12 from the parasite S. stercoralis (ssDAF-12).; type: functional
[9] = molecular target: T2, Oxysterols receptor LXR-beta (Homo sapiens, UniProt P55055); type: functional, cell-based;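 note: Cell-based luminescence dose-response assay of agonist activity at LXR, run as a confirmatory counterscreen to a daf-12 agonist screen; HEK293 cells with Gal4-LXR fusion and GAL4-driven luciferase reporter; agonist potency from rising luciferase signal of a Gal4-LXR reporter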
T2 sequence (P55055 whole entry): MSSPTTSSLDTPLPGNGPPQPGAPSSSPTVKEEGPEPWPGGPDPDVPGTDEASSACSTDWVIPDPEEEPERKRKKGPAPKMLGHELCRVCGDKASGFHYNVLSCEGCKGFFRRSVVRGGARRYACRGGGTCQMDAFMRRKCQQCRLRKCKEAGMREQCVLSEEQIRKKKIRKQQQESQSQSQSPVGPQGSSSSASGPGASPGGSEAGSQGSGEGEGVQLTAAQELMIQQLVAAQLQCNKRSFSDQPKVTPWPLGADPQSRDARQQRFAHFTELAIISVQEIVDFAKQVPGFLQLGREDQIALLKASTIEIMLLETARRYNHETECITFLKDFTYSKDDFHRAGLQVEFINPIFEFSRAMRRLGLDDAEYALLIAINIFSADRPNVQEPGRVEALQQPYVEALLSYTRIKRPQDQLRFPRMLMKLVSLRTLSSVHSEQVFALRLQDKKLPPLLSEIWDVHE

cells [10] = test: cells
[11] = inhibitors of PGC1a acetylation in cells, dose response, cell-based, cherry-picked samples (AID 720514); type: functional;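 note: potency may reflect raised or lowered acetylation signal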
[12] = HeLa 2N DNA content increase, dose response, cell-based, IC50 (AID 1117349); type: functional
[13] = HeLa 4N DNA content increase, dose response, cell-based, IC50 (AID 1117351); type: functional

O=C(COc1ccc2ccccc2c1)Nc1ccncc1
IC50 (cells [1]): 6.95 µM (active)
IC50 (Galanin receptor type 3): 1.77 µM (active)
EC50 (cells [2]): > 29.9 µM (inactive)

COc1ccc(-c2cc3nc(NCc4ccc(N(C)C)cc4)n(C)c(=O)c3s2)cc1OC
AC50 [3]: 36 µM (active)
AC50 [4]: 45.2 µM (active)
AC50 [5]: 31.3 µM (active)
AC50 [6]: 39 µM (active)
AC50 [7]: 3.28 µM (active)

C[C@@H]1CN([C@H](C)CO)C(=O)CCCn2nncc2CO[C@H]1CN(C)C(=O)Nc1cccc2ccccc12
AC50 [4]: > 52 µM (inactive)
AC50 [6]: 34.8 µM (active)

Nc1ccccc1-n1nc2ccc3ccccc3c2n1
IC50 [8]: > 67.5 µM (inactive)
EC50 [9]: > 67.5 µM (inactive)
EC50 (cells [10]): > 67.5 µM (inactive)

O=C(Cc1ccccn1)NCC[C@H]1CC[C@@H](NC(=O)Nc2ccc(C(F)(F)F)cc2)[C@@H](CO)O1
AC50 [11]: 34.6 µM (active)

C[C@@H]1CN([C@@H](C)CO)S(=O)(=O)c2ccc(-c3ccc(C#N)cc3)cc2O[C@H]1CN(C)C(=O)CN(C)C
AC50 [11]: 26.5 µM (active)

[O-][n+]1ccccc1SSc1cccc[n+]1[O-] [DIPYRITHIONE]
IC50 [12]: > 10 µM (inactive)
IC50 [13]: > 10 µM (inactive)
